Results from patent US5879659A, “Ternary radiopharmaceutical complexes” (DuPont Pharmaceuticals Company, priority 1997, dated 1999).

Tested on: thrombi
Assay: Canine Arteriovenous Shunt model
Assay type: in vivo, dog
Conditions: first 1 hour shunt period, 150 μCi/kg, i.v.
Method: Canine Arteriovenous Shunt Model: Adult mongrel dogs of either sex (9-13 kg) were anesthetized with pentobarbital sodium (35 mg/kg,i.v.) and ventilated with room air via an endotracheal tube (12 strokes/min, 25 ml/kg). For arterial pressure determination, the left carotid artery was cannulated with a saline-filled polyethylene catheter (PE-240) and connected to a Statham pressure transducer (P23ID; Oxnard, Calif.). Mean arterial blood pressure was determined via damping the pulsatile pressure signal. Heart rate was monitored using a cardiotachometer (Biotach, Grass Quincy, Mass.) triggered from a lead II electrocardiogram generated by limb leads. A jugular vein was cannulated (PE-240) for drug administration. The both femoral arteries and femoral veins were cannulated with silicon treated (Sigmacote, Sigma Chemical Co. St Louis, Mo.), saline filled polyethylene tubing (PE-200) and connected with a 5 cm section of silicon treated tubing (PE-240) to form an extracorporeal arterio-venous shunts (A-V). Shunt patency was monitored using a doppler flow system (model VF-1, Crystal Biotech Inc, Hopkinton, Mass.) and flow probe (2-2.3 mm, Titronics Med. Inst., Iowa City, Iowa) placed proximal to the locus of the shunt. All parameters were monitored continuously on a polygraph recorder (model 7D Grass) at a paper speed of 10 mm/min or 25 mm/sec.
On completion of a 15 min post surgical stabilization period, an occlusive thrombus was formed by the introduction of a thrombogenic surface (4-0 braided silk thread, 5 cm in length, Ethicon Inc., Somerville, N.J.) into the shunt one shunt with the other serving as a control. Two consecutive 1 hr shunt periods were employed with the test agent administered as an infusion over 5 min beginning 5 min before insertion of the thrombogenic surface. At the end of each 1 hr shunt period the silk was carefully removed and weighed and the % incorporation determined via well counting. Thrombus weight was calculated by subtracting the weight of the silk prior to placement from the total weight of the silk on removal from the shunt. […]

Substance: ^99m Tc(tricine) (tris(1-pyrazolyl)borohydride)-Cyclo(D-Val-NMeArg-Gly-Asp-Mamb(hydrazino-nicotinyl-5-Aca)) [Example 1]
- uptake in thrombi compared with positive control (In-111-platelets) and negative controls (Tc-99m-albumin, I-125-fibrinogen) (mixed arterial and venous conditions): taken up in thrombi under both mixed arterial and venous conditions equivalently to the positive control and to a significantly greater extent than the negative controls
- thrombus-to-blood ratio (target-to-background ratio) (mixed arterial conditions): 114
- thrombus-to-blood ratio (target-to-background ratio) (venous conditions): 3.1
